Data from ChEMBL document CHEMBL5506069, “A Unique Hybridization Route to Access Hydrazylnaphthalimidols as Novel Structural Scaffolds of Multitargeting Broad-Spectrum Antifungal Candidates” (J Med Chem, 2024).
Converted amounts (≈) assume the structure as drawn.

Legend:
Format in all cases: functional
Candida parapsilosis = test: Antifungal activity against Candida parapsilosis ATCC 22019 assessed as inhibition of fungal growth incubated for 24 hrs by CLSI based microbroth dilution method; settings: Lodderomyces parapsilosis
Aspergillus fumigatus = test: Antifungal activity against Aspergillus fumigatus assessed as inhibition of fungal growth incubated for 24 hrs by CLSI based microbroth dilution method
Candida albicans [1] = test: Antifungal activity against Candida albicans assessed as inhibition of fungal growth incubated for 24 hrs by CLSI based microbroth dilution method
Candida tropicalis = test: Antifungal activity against Candida tropicalis assessed as inhibition of fungal growth incubated for 24 hrs by CLSI based microbroth dilution method
Candida albicans [2] = test: Antifungal activity against Candida albicans ATCC 90023 assessed as inhibition of fungal growth incubated for 24 hrs by CLSI based microbroth dilution method

Structure (SMILES)	MIC (Candida parapsilosis) [µM]	MIC (Aspergillus fumigatus) [µM]	MIC (Candida albicans [1]) [µM]	MIC (Candida tropicalis) [µM]	MIC (Candida albicans [2]) [µM]
O=C1c2cccc3c(N/N=C/c4ccc(O)cc4O)ccc(c23)C(=O)N1CCO	327 (≈ 128 µg/mL)	327 (≈ 128 µg/mL)	327 (≈ 128 µg/mL)	655 (≈ 256 µg/mL)	655 (≈ 256 µg/mL)
CCCCCCCCN1C(=O)c2cccc3c(N/N=C(\C)Cn4c([N+](=O)[O-])cnc4C)ccc(c23)C1=O	1020 (≈ 512 µg/mL)	1020 (≈ 512 µg/mL)	1020 (≈ 512 µg/mL)	1020 (≈ 512 µg/mL)	1020 (≈ 512 µg/mL)
O=C1c2cccc3c(N/N=C/c4ccco4)ccc(c23)C(=O)N1CCO	351 (≈ 123 µg/mL)	87 (≈ 30.4 µg/mL)	87 (≈ 30.4 µg/mL)	87 (≈ 30.4 µg/mL)	175 (≈ 61.1 µg/mL)
CCCCN1C(=O)c2cccc3c(N/N=C(\C)Cn4c([N+](=O)[O-])cnc4C)ccc(c23)C1=O	1140 (≈ 512 µg/mL)	1140 (≈ 512 µg/mL)	1140 (≈ 512 µg/mL)	1140 (≈ 512 µg/mL)	1140 (≈ 512 µg/mL)
NNc1ccc2c3c(cccc13)C(=O)N(CCO)C2=O	236 (≈ 64 µg/mL)	118 (≈ 32 µg/mL)	118 (≈ 32 µg/mL)	118 (≈ 32 µg/mL)	118 (≈ 32 µg/mL)
C=CCN1C(=O)c2cccc3c(N/N=C(\C)Cn4c([N+](=O)[O-])cnc4C)ccc(c23)C1=O	1190 (≈ 515 µg/mL)	595 (≈ 257 µg/mL)	1190 (≈ 515 µg/mL)	1190 (≈ 515 µg/mL)	1190 (≈ 515 µg/mL)
CCCCCCCN1C(=O)c2cccc3c(N/N=C(\C)Cn4c([N+](=O)[O-])cnc4C)ccc(c23)C1=O	1040 (≈ 512 µg/mL)	1040 (≈ 512 µg/mL)	1040 (≈ 512 µg/mL)	1040 (≈ 512 µg/mL)	1040 (≈ 512 µg/mL)
CCN1C(=O)c2cccc3c(N/N=C(\C)Cn4c([N+](=O)[O-])cnc4C)ccc(c23)C1=O	1220 (≈ 512 µg/mL)	1220 (≈ 512 µg/mL)	1220 (≈ 512 µg/mL)	1220 (≈ 512 µg/mL)	1220 (≈ 512 µg/mL)
CCCCCCCn1c(CCCC)nc(Cl)c1/C=N/Nc1ccc2c3c(cccc13)C(=O)N(CCO)C2=O	238 (≈ 128 µg/mL)	119 (≈ 64 µg/mL)	119 (≈ 64 µg/mL)	60 (≈ 32.3 µg/mL)	119 (≈ 64 µg/mL)
CCCCc1nc(Cl)c(/C=N/Nc2ccc3c4c(cccc24)C(=O)N(CCO)C3=O)n1C	565 (≈ 256 µg/mL)	18 (≈ 8.17 µg/mL)	71 (≈ 32.2 µg/mL)	141 (≈ 64 µg/mL)	71 (≈ 32.2 µg/mL)

The next compounds have a lower MIC (Candida parapsilosis) than those just listed; values first:

MIC (Candida parapsilosis) [µM]	MIC (Aspergillus fumigatus) [µM]	MIC (Candida albicans [1]) [µM]	MIC (Candida tropicalis) [µM]	MIC (Candida albicans [2]) [µM]	Structure (SMILES)
175 (≈ 63.9 µg/mL)	175 (≈ 63.9 µg/mL)	175 (≈ 63.9 µg/mL)	351 (≈ 128 µg/mL)	351 (≈ 128 µg/mL)	O=C1c2cccc3c(N/N=C/c4cccs4)ccc(c23)C(=O)N1CCO
168 (≈ 63.6 µg/mL)	338 (≈ 128 µg/mL)	42 (≈ 15.9 µg/mL)	84 (≈ 31.8 µg/mL)	84 (≈ 31.8 µg/mL)	CCN1C(=O)c2cccc3c(N/N=C/c4ccc([N+](=O)[O-])o4)ccc(c23)C1=O
134 (≈ 64.3 µg/mL)	17 (≈ 8.16 µg/mL)	67 (≈ 32.2 µg/mL)	2 (≈ 0.96 µg/mL)	33 (≈ 15.8 µg/mL)	C=CCn1c(CCCC)nc(Cl)c1/C=N/Nc1ccc2c3c(cccc13)C(=O)N(CCO)C2=O
116 (≈ 64.2 µg/mL)	29 (≈ 16 µg/mL)	58 (≈ 32.1 µg/mL)	29 (≈ 16 µg/mL)	4 (≈ 2.21 µg/mL)	CCCCc1nc(Cl)c(/C=N/Nc2ccc3c4c(cccc24)C(=O)N(CCO)C3=O)n1CCN1CCOCC1
89 (≈ 32.1 µg/mL)	355 (≈ 128 µg/mL)	711 (≈ 256 µg/mL)	355 (≈ 128 µg/mL)	355 (≈ 128 µg/mL)	O=C1c2cccc3c(N/N=C/c4cccnc4)ccc(c23)C(=O)N1CCO
78 (≈ 32 µg/mL)	19 (≈ 7.8 µg/mL)	39 (≈ 16 µg/mL)	156 (≈ 64 µg/mL)	78 (≈ 32 µg/mL)	O=C1c2cccc3c(N/N=C/c4ccc([N+](=O)[O-])s4)ccc(c23)C(=O)N1CCO
64	127	32	32	255	C[n+]1ccccc1/C=N/Nc1ccc2c3c(cccc13)C(=O)N(CCO)C2=O
57 (≈ 32.2 µg/mL)	57 (≈ 32.2 µg/mL)	57 (≈ 32.2 µg/mL)	28 (≈ 15.8 µg/mL)	7 (≈ 3.95 µg/mL)	CCCCc1nc(Cl)c(/C=N/Nc2ccc3c4c(cccc24)C(=O)N(CCO)C3=O)n1Cc1ccc(Cl)cc1
46 (≈ 16 µg/mL)	92 (≈ 32 µg/mL)	367 (≈ 128 µg/mL)	23 (≈ 8.01 µg/mL)	367 (≈ 128 µg/mL)	O=C1c2cccc3c(N/N=C/c4cc[nH]c4)ccc(c23)C(=O)N1CCO
23 (≈ 8.04 µg/mL)	183 (≈ 63.9 µg/mL)	183 (≈ 63.9 µg/mL)	46 (≈ 16.1 µg/mL)	92 (≈ 32.1 µg/mL)	O=C1c2cccc3c(N/N=C/c4c[nH]cn4)ccc(c23)C(=O)N1CCO
21 (≈ 7.97 µg/mL)	10 (≈ 3.79 µg/mL)	21 (≈ 7.97 µg/mL)	5 (≈ 1.9 µg/mL)	5 (≈ 1.9 µg/mL)	O=C1c2cccc3c(N/N=C/c4ccc(CO)o4)ccc(c23)C(=O)N1CCO
15 (≈ 8.22 µg/mL)	58 (≈ 31.8 µg/mL)	58 (≈ 31.8 µg/mL)	15 (≈ 8.22 µg/mL)	15 (≈ 8.22 µg/mL)	CCCCc1nc(Cl)c(/C=N/Nc2ccc3c4c(cccc24)C(=O)N(CCO)C3=O)n1Cc1ccccc1F
13 (≈ 7.79 µg/mL)	214 (≈ 128 µg/mL)	54 (≈ 32.3 µg/mL)	54 (≈ 32.3 µg/mL)	3 (≈ 1.8 µg/mL)	CCCCc1nc(Cl)c(/C=N/Nc2ccc3c4c(cccc24)C(=O)N(CCO)C3=O)n1Cc1ccc(Cl)cc1Cl
6 (≈ 2.1 µg/mL)	183 (≈ 63.9 µg/mL)	367 (≈ 128 µg/mL)	92 (≈ 32.1 µg/mL)	183 (≈ 63.9 µg/mL)	O=C1c2cccc3c(N/N=C/c4ncc[nH]4)ccc(c23)C(=O)N1CCO
